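Where inhibition never reached the appropriate level, the endpoint shown equals the highest concentration tested. Otherwise, values were interpolated linearly from a five-concentration, 48-hour dose response in 96-well plates. GI50 = concentration required for 50% inhibition of growth.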 Active and inactive are the calls of the source. Cut-off read from the data, not from the text of the source: active = GI50 up to about 1.1 µM and inactive = higher.
What was measured:
Test in all cases: NCI-60 cell line screen, 48 h
DLD-1 = test system: DLD-1
XF498 = test system: XF498
LXFL 529 = test system: LXFL 529
DMS-273 = test system: DMS-273
KM-20L2 = test system: KM-20L2
M19-MEL = test system: M19-MEL
HOP-18 = test system: HOP-18
SNB-78 = test system: SNB-78
RXF 631 = test system: RXF 631

Measured: GI50

N#Cc1c2ccccc2cn1-c1ccc(F)cc1
inactive: DLD-1 48.8 µM | XF498 42.2 µM | LXFL 529 31.3 µM | DMS-273 > 10 µM | KM-20L2 31.9 µM | M19-MEL 37.8 µM

N#CC12CCC1C1CCCCC12N1CCSCC1 (configuration not stated)
inactive: DLD-1 > 100 µM | HOP-18 > 100 µM | XF498 > 100 µM | SNB-78 > 100 µM | LXFL 529 > 100 µM | DMS-273 > 100 µM | KM-20L2 > 100 µM | M19-MEL > 100 µM

N#Cc1c2c(c(N=[N+]=[N-])n3c1nc1ccccc13)CCCC2
inactive: DLD-1 1.39 µM | XF498 1.75 µM | SNB-78 3.56 µM | DMS-273 2.37 µM | KM-20L2 2.24 µM | M19-MEL 1.75 µM

O=C(CSc1nnc(-c2ccc(/N=C\c3ccc(Cl)cc3)cc2)o1)Nc1ccc(Cl)cc1
inactive: HOP-18 > 100 µM | XF498 > 100 µM | SNB-78 > 100 µM | LXFL 529 > 100 µM | DMS-273 > 100 µM | KM-20L2 > 100 µM | M19-MEL > 100 µM

CC(=O)NC1C(OCc2ccccc2)OC(COC(=O)CCCCCCCCCCNC(=O)c2cccc3c(=O)c4ccccc4[nH]c23)C(O)C1OC(C)C(=O)NC(C)C(=O)NC(CCC(N)=O)C(N)=O (configuration not stated)
inactive: DLD-1 95.9 µM | HOP-18 59 µM | XF498 38.7 µM | SNB-78 99.1 µM | RXF 631 19.5 µM | LXFL 529 37.3 µM | DMS-273 57.8 µM | KM-20L2 > 100 µM | M19-MEL 75.5 µM

COC(=O)c1cc2c(c(C(=O)OC)c1O)C(=O)C=CC2=O
inactive: DLD-1 > 21.5 µM | HOP-18 4.88 µM | XF498 > 9.1 µM | SNB-78 > 42.8 µM | RXF 631 34.8 µM | LXFL 529 11.6 µM | DMS-273 34.1 µM | KM-20L2 > 41.6 µM | M19-MEL > 43.8 µM

COC1OC2COC(C)(C)OC2C(OC(C)=O)C1NC(=O)N(CCCl)N=O (configuration not stated)
inactive: DLD-1 > 100 µM | HOP-18 > 100 µM | XF498 > 100 µM | SNB-78 > 100 µM | LXFL 529 > 100 µM | DMS-273 > 100 µM | KM-20L2 > 100 µM | M19-MEL > 100 µM

Cc1cc2c([nH]c3ccccc32)c2c1OC(C)(C)C1C3CC(C)(C)Oc4c(C)cc5c6ccccc6n(c5c43)C21 (configuration not stated)
inactive: HOP-18 > 100 µM | SNB-78 > 100 µM | LXFL 529 > 100 µM | DMS-273 > 100 µM | KM-20L2 > 100 µM | M19-MEL > 100 µM

COc1cc2c(c3c1c(=O)c1ccccc1n3C)C=CC(C)(C)O2 [ACRONINE]
inactive: DLD-1 > 100 µM | HOP-18 56 µM | SNB-78 > 100 µM | LXFL 529 94 µM | DMS-273 23.3 µM | KM-20L2 49.9 µM | M19-MEL 72.3 µM

COc1ccc(C2CC(c3cc(C)ccc3O)=NC(N)=N2)cc1 (configuration not stated)
inactive: DLD-1 > 100 µM | HOP-18 > 100 µM | XF498 > 100 µM | SNB-78 > 100 µM | LXFL 529 > 100 µM | DMS-273 > 100 µM | KM-20L2 > 100 µM | M19-MEL > 100 µM

Cc1ccc([S+]([O-])C(C)C(Cl)c2ccccc2)cc1 (configuration not stated)
inactive: DLD-1 > 100 µM | HOP-18 > 100 µM | SNB-78 > 100 µM | LXFL 529 81.1 µM | DMS-273 > 100 µM | KM-20L2 > 100 µM | M19-MEL 54.3 µM

O=c1c2ccccc2nc(-c2ccccc2)n1NC(=S)Nc1ccc(Cl)cc1
inactive: DLD-1 > 100 µM | HOP-18 > 100 µM | LXFL 529 48.6 µM | DMS-273 > 100 µM | M19-MEL 52.6 µM

COc1ccc2nc(-c3ccccn3)cc(O)c2c1
inactive: DLD-1 52.6 µM | HOP-18 61.7 µM | SNB-78 99.3 µM | RXF 631 85.1 µM | LXFL 529 41.5 µM | M19-MEL 31.8 µM

Source: ChEMBL document CHEMBL1201862, “PubChem BioAssay data set” (2004)
